Laboratory results taken from ChEMBL document CHEMBL4483862, “Open-source discovery of chemical leads for next-generation chemoprotective antimalarials” (2018).

Test system: Plasmodium berghei
Test: Luciferase/luciferin-expressing antifolate-resistant parasites were used to infect a culture of HepG2 cells that were pre-incubated with compounds. Infected hepatocytes emit light due to the luciferase reaction. Assay results are presented as the percent inhibition of light emission compared to control. […]
Assay type: functional
Settings: sporozoite; for IC90: read-out: LUCIFERASE INFECTION ASSAY - IC90
[1] = read-out: LUCIFERASE INFECTION ASSAY - IC50

| Structure (SMILES) | IC90 [µM] | IC50 [1] [µM] | further results |
| --- | --- | --- | --- |
| COc1ccc2c(c1)[nH]c1c(N(C)CCc3ccc(OC)c(OC)c3)ncnc12 | > 8.41 | – | IC50 (HEPG2TOX_HILL_SLOPE 1.05, HEPG2TOX_R_SQUARED 0.856, PBLUC_HILL_SLOPE 1.55, PBLUC_R_SQUARED 0.53, read-out: LUCIFERASE INFECTION ASSAY - IC50): 4.47 µM |
| N#C/C(=N\Nc1cc(C(F)(F)F)ccc1OCC(F)(F)F)S(=O)(=O)c1ccccc1 | 0.397 | – | IC50 (HEPG2TOX_HILL_SLOPE 2.04, HEPG2TOX_R_SQUARED 0.948, PBLUC_HILL_SLOPE 1.99, PBLUC_R_SQUARED 0.732, read-out: LUCIFERASE INFECTION ASSAY - IC50): 0.131 µM |
| COC(=O)c1sccc1NC(=O)N(C)Cc1ccc(C)cc1C | > 10 | – | IC50 (PBLUC_HILL_SLOPE 2.81, PBLUC_R_SQUARED 0.305, read-out: LUCIFERASE INFECTION ASSAY - IC50): 6.58 µM |
| O=C(CN(Cc1ccccc1Cl)S(=O)(=O)/C=C/c1ccccc1)Nc1ccc(F)cc1Cl | > 10 | > 10 | – |
| CCOc1cc2c(cc1CNC(=O)c1cnc3cc(C)nn3c1C)OC(C)C2 (stereo not drawn) | 4.78 | – | IC50 (PBLUC_HILL_SLOPE 2.71, PBLUC_R_SQUARED 0.828, read-out: LUCIFERASE INFECTION ASSAY - IC50): 2.13 µM |
| Cc1cnc2c(S(=O)(=O)NCc3csc(-c4ccccc4)n3)cccc2c1 | > 10 | > 10 | – |
| Clc1ccc(CSc2nncn2-c2ccc3c(c2)OCCO3)cc1 | 3.5 | – | IC50 (HEPG2TOX_HILL_SLOPE 1.37, HEPG2TOX_R_SQUARED 0.824, PBLUC_HILL_SLOPE 1.99, PBLUC_R_SQUARED 0.536, read-out: LUCIFERASE INFECTION ASSAY - IC50): 1.16 µM |
| CCCCCNC(=O)COC(=O)c1ccccc1-n1ncc(Cl)c(Cl)c1=O | 7.79 | – | IC50 (HEPG2TOX_HILL_SLOPE 4.14, HEPG2TOX_R_SQUARED 0.93, PBLUC_HILL_SLOPE 2.41, PBLUC_R_SQUARED 0.609, read-out: LUCIFERASE INFECTION ASSAY - IC50): 3.13 µM |
| O=C(COc1ccc(Oc2ccccc2)cc1)NCc1cn2ccccc2n1 | 1.77 | – | IC50 (HEPG2TOX_HILL_SLOPE 0.752, HEPG2TOX_R_SQUARED 0.901, PBLUC_HILL_SLOPE 2.64, PBLUC_R_SQUARED 0.419, read-out: LUCIFERASE INFECTION ASSAY - IC50): 0.772 µM |
| CC(NC(=O)C12CC3CC(CC(C3)C1)C2)C(=O)N/N=C/C1=C(N2CCOCC2)C(=C\c2ccccc2)/CC1 (stereo not drawn) | > 10 | – | IC50 (FFLUC_HILL_SLOPE 17.7, FFLUC_R_SQUARED 0.505, PBLUC_HILL_SLOPE 17.3, PBLUC_R_SQUARED 0.294, read-out: LUCIFERASE INFECTION ASSAY - IC50): 9.09 µM |
| Cc1cccc(NC(=O)CN2C(=O)/C(=C(/C#N)c3nc4ccccc4[nH]3)c3ccccc32)c1 | > 10 | – | IC50 (FFLUC_HILL_SLOPE 4.46, FFLUC_R_SQUARED 0.474, HEPG2TOX_HILL_SLOPE 6.44, HEPG2TOX_R_SQUARED 0.532, PBLUC_HILL_SLOPE 2.02, PBLUC_R_SQUARED 0.59, read-out: LUCIFERASE INFECTION ASSAY - IC50): 5.68 µM |
| C=CCn1c(-c2ccccc2)c(C)sc1=Nc1ccc(Cl)cc1 | > 10 | – | IC50 (PBLUC_HILL_SLOPE 11.2, PBLUC_R_SQUARED 0.0711, read-out: LUCIFERASE INFECTION ASSAY - IC50): 9.93 µM |
| O=S(=O)(c1ccccc1)c1ccc(S(=O)(=O)N2CCCC2)s1 | > 9.23 | > 9.23 | – |
| CN(C)C(=O)c1cccc(-c2cn3c(-c4ccc(CO)cc4)cnc3cn2)c1 | > 8.86 | – | IC50 (PBLUC_HILL_SLOPE 11.4, PBLUC_R_SQUARED 0.237, read-out: LUCIFERASE INFECTION ASSAY - IC50): 8.26 µM |
| Cc1cc(/C=N/Nc2ccccc2[N+](=O)[O-])c(C)n1CC(C)C | 8.36 | – | IC50 (PBLUC_HILL_SLOPE 1.12, PBLUC_R_SQUARED 0.805, read-out: LUCIFERASE INFECTION ASSAY - IC50): 1.17 µM |
| O=C(Cn1cc(C(F)(F)F)ccc1=O)N/N=C/c1c2ccccc2cc2ccccc12 | > 10 | – | IC50 (PBLUC_HILL_SLOPE 2.42, PBLUC_R_SQUARED 0.423, read-out: LUCIFERASE INFECTION ASSAY - IC50): 5.16 µM |
| O=C(CNc1ccccc1-c1ccccc1)NCC(F)(F)F | > 10 | > 10 | – |
| Cc1ccc(-c2csc(NC(=O)/C=C/c3cnn(C)c3)n2)o1 | 4.35 | – | IC50 (HEPG2TOX_HILL_SLOPE 1.69, HEPG2TOX_R_SQUARED 0.984, PBLUC_HILL_SLOPE 1.61, PBLUC_R_SQUARED 0.8, read-out: LUCIFERASE INFECTION ASSAY - IC50): 1.11 µM |
| Cc1cc(NC(=O)CCc2ccc(C)c(Cl)c2)n(C)n1 | > 10 | > 10 | – |
| OC1CCC(Nc2nn3c(-c4ccc(F)c(Cl)c4)cnc3s2)CC1 (stereo not drawn) | > 9 | > 9 | – |
| COCCn1cnc2cnc(Nc3cccc(F)c3)cc21 | > 10 | > 10 | – |
| N#Cc1ccc(-c2csc(CS(=O)(=O)Cc3cccc(C(F)(F)F)c3)n2)cc1 | > 7.81 | > 7.81 | – |

| Structure (SMILES) | IC90 [µM] | IC50 [1] [µM] | further results |
| --- | --- | --- | --- |
| O=C1C(Cl)=C(OC(CO)CO)C(=O)c2ccccc21 | 1.49 | – | IC50 (HEPG2TOX_HILL_SLOPE 4.19, HEPG2TOX_R_SQUARED 0.978, PBLUC_HILL_SLOPE 3.44, PBLUC_R_SQUARED 0.808, read-out: LUCIFERASE INFECTION ASSAY - IC50): 0.784 µM |
| NC(Cc1ccc(F)cc1)c1csc(Nc2ccc(C(F)(F)F)cn2)n1 (stereo not drawn) | 5.98 | – | IC50 (PBLUC_HILL_SLOPE 202, PBLUC_R_SQUARED 0.785, read-out: LUCIFERASE INFECTION ASSAY - IC50): 5.91 µM |
| Cc1cc(N)c(N)cc1C | 6.18 | – | IC50 (PBLUC_HILL_SLOPE 0.927, PBLUC_R_SQUARED 0.706, read-out: LUCIFERASE INFECTION ASSAY - IC50): 0.577 µM |
| CC(Sc1nnc(-c2ccc[nH]2)o1)C(=O)c1ccc(C(C)(C)C)cc1 (stereo not drawn) | > 10 | – | IC50 (PBLUC_HILL_SLOPE 11.5, PBLUC_R_SQUARED 0.42, read-out: LUCIFERASE INFECTION ASSAY - IC50): 8.92 µM |
| CN(CC(=O)Nc1ccc(Cl)c(S(=O)(=O)N2CCOCC2)c1)C(=O)C1CCCO1 (stereo not drawn) | > 10 | > 10 | – |
| Cc1ccc(NC(=O)C(OC(=O)c2c(C)noc2C)c2ccccc2)cc1Cl (stereo not drawn) | > 10 | > 10 | – |
| CN(C)CCNC(=O)c1ccc(-c2cnc3c(Nc4ccc(Oc5ccccc5)cc4)nccn23)cc1 | > 6.7 | > 6.7 | – |
| CC(C)(C)S(=O)(=O)/C(C#N)=C/Nc1ccc(OC(F)(F)F)cc1 | > 9.47 | > 9.47 | – |
| Fc1ccc(-c2cnc3cnc(-c4cccs4)cn23)cc1Cl | > 10 | – | IC50 (HEPG2TOX_HILL_SLOPE 0.129, HEPG2TOX_R_SQUARED 0.552, PBLUC_HILL_SLOPE 2.11, PBLUC_R_SQUARED 0.543, read-out: LUCIFERASE INFECTION ASSAY - IC50): 4.6 µM |
| Cc1nnc(SC2CCCCC2=O)n1C1CCCCC1 (stereo not drawn) | > 10 | > 10 | – |
| COc1ccccc1-c1noc(-c2cc3c(s2)CCCCC3)n1 | 0.846 | – | IC50 (FFLUC_HILL_SLOPE 2.02, FFLUC_R_SQUARED 0.0931, PBLUC_HILL_SLOPE 0.909, PBLUC_R_SQUARED 0.727, read-out: LUCIFERASE INFECTION ASSAY - IC50): 0.0754 µM |
| O=C(NNC(=O)c1cnc2ccccn2c1=O)c1cc(Cl)ccc1O | 4.25 | – | IC50 (HEPG2TOX_HILL_SLOPE 14.4, HEPG2TOX_R_SQUARED 0.595, PBLUC_HILL_SLOPE 11.5, PBLUC_R_SQUARED 0.377, read-out: LUCIFERASE INFECTION ASSAY - IC50): 3.51 µM |
| CS(=O)(=O)c1ccc(-c2ccc3ncc(-c4cccc(C(F)(F)F)c4)n3n2)cc1 | > 10 | 2.78 | – |
| CCN1C/C(=C/c2ccc(OC)c(O)c2)C(=O)/C(=C/c2ccc(OC)c(O)c2)C1 | 4.05 | – | IC50 (HEPG2TOX_HILL_SLOPE 4, HEPG2TOX_R_SQUARED 0.984, PBLUC_HILL_SLOPE 15.6, PBLUC_R_SQUARED 0.475, read-out: LUCIFERASE INFECTION ASSAY - IC50): 3.52 µM |
| Cn1ccnc1C(=O)c1cc(SCC(=O)N2CCN(S(=O)(=O)c3ccc4ccccc4c3)CC2)nc2ccccc12 | > 10 | > 10 | – |
| O=C(Nc1ccc(OC(F)(F)F)cc1)Nc1ccc(Sc2ccccc2)nc1Sc1ccccc1 | 1.18 | – | IC50 (HEPG2TOX_HILL_SLOPE 8.48, HEPG2TOX_R_SQUARED 0.476, PBLUC_HILL_SLOPE 1.76, PBLUC_R_SQUARED 0.832, read-out: LUCIFERASE INFECTION ASSAY - IC50): 0.339 µM |
| COC(=O)c1ccccc1N1C(=O)C=CC1=O | 5.93 | – | IC50 (FFLUC_HILL_SLOPE 4.6, FFLUC_R_SQUARED 0.0459, HEPG2TOX_HILL_SLOPE 7.42, HEPG2TOX_R_SQUARED 0.806, PBLUC_HILL_SLOPE 7.78, PBLUC_R_SQUARED 0.766, read-out: LUCIFERASE INFECTION ASSAY - IC50): 4.47 µM |
| COc1ccc(-n2c(=O)c3ccccc3n3c(SCC(N)=O)nnc23)cc1 | > 10 | > 10 | – |
| COc1cc(-c2ccnc3n[nH]c(-c4ccc(N(C)C)cc4)c23)cc(OC)c1OC | 3.63 | – | IC50 (PBLUC_HILL_SLOPE 14.6, PBLUC_R_SQUARED 0.557, read-out: LUCIFERASE INFECTION ASSAY - IC50): 3.12 µM |
| Cc1c(C(=O)OCc2coc(-c3cccs3)n2)sc2nc3n(c(=O)c12)CCC3 | 7.63 | – | IC50 (PBLUC_HILL_SLOPE 4.64, PBLUC_R_SQUARED 0.43, read-out: LUCIFERASE INFECTION ASSAY - IC50): 4.75 µM |
| Cc1sc2nc(-c3cccnc3)nc(NCC(c3ccco3)N(C)C)c2c1C (stereo not drawn) | > 10 | > 10 | – |
| CCOc1cccc(C2Nc3ccccc3C(=O)N2C2CC2)c1O (stereo not drawn) | 9.55 | – | IC50 (HEPG2TOX_HILL_SLOPE 0.644, HEPG2TOX_R_SQUARED 0.857, PBLUC_HILL_SLOPE 2.2, PBLUC_R_SQUARED 0.323, read-out: LUCIFERASE INFECTION ASSAY - IC50): 3.51 µM |
